# Active and inactive are the calls of the source. No cut-off for these calls is given here.
# Columns and labels:
# [1] = test system: Tribolium confusum; experiment: Insecticidal activity against Tribolium confusum (confused flour beetle) infected wheat assessed as increase in mortality at 0.125 to 0.75 ppm applied as spray after 48 hr in presence of diatomaceous earth; type: functional, organism-based
# [2] = test system: Tribolium confusum; experiment: Insecticidal activity against Tribolium confusum (confused flour beetle) infected wheat assessed as increase in mortality at 0.25 to 0.75 ppm applied as spray after 14 days in absence of diatomaceous earth; type: functional
# [3] = test system: Tribolium confusum; experiment: Insecticidal activity against Tribolium confusum (confused flour beetle) infected wheat assessed as increase in mortality at 0.125 ppm applied as spray after 14 days in absence of diatomaceous earth; type: functional; details: 336 h
# [4] = test system: Sitophilus oryzae; experiment: Insecticidal activity against Sitophilus oryzae (rice weevil) infected wheat assessed as increase in mortality at 0.125 to 0.25 ppm applied as spray after 14 days in presence of diatomaceous earth; type: functional, organism-based
# [5] = test system: Sitophilus oryzae; experiment: Insecticidal activity against Sitophilus oryzae (rice weevil) infected wheat assessed as decrease in progeny productionc at 0.125 to 0.75 ppm applied as spray after 60 days in absence of diatomaceous earth; type: functional, organism-based
# [6] = test system: Sitophilus oryzae; experiment: Insecticidal activity against Sitophilus oryzae (rice weevil) infected wheat assessed as increase in mortality at 0.75 ppm applied as spray after 14 days in absence of diatomaceous earth; type: functional, organism-based
# [7] = test system: Sitophilus oryzae; experiment: Insecticidal activity against Sitophilus oryzae (rice weevil) infected wheat assessed as mortality at 0.125 to 0.75 ppm applied as spray after 24 hr in absence of diatomaceous earth; type: functional
# [8] = test system: Tribolium confusum; experiment: Insecticidal activity against Tribolium confusum (confused flour beetle) infected wheat assessed as increase in mortality at 0.125 to 0.75 ppm applied as spray after 24 hr in absence of diatomaceous earth; type: functional, organism-based
# [9] = test system: Tribolium confusum; experiment: Insecticidal activity against Tribolium confusum (confused flour beetle) infected wheat assessed as increase in mortality at 0.125 to 0.75 ppm applied as spray after 7 days in absence of diatomaceous earth; type: functional, organism-based
# [10] = test system: Sitophilus oryzae; experiment: Insecticidal activity against Sitophilus oryzae (rice weevil) infected wheat assessed as mortality at 0.75 ppm applied as spray after 48 hr in absence of diatomaceous earth; type: functional
# [11] = test system: Sitophilus oryzae; experiment: Insecticidal activity against Sitophilus oryzae (rice weevil) infected wheat assessed as increase in mortality at 0.125 ppm applied as spray after 7 days in absence of diatomaceous earth; type: functional, organism-based
# [12] = test system: Sitophilus oryzae; experiment: Insecticidal activity against Sitophilus oryzae (rice weevil) infected wheat assessed as mortality at 0.75 ppm applied as spray after 7 days in absence of diatomaceous earth; type: functional; details: 168 h
# [13] = test system: Sitophilus oryzae; experiment: Insecticidal activity against Sitophilus oryzae (rice weevil) infected wheat assessed as decrease in progeny productionc at 0.125 to 0.75 ppm applied as spray after 60 days in presence of diatomaceous earth; type: functional, organism-based
# [14] = test system: Sitophilus oryzae; experiment: Insecticidal activity against Sitophilus oryzae (rice weevil) infected wheat assessed as increase in mortality at 0.125 to 0.25 ppm applied as spray after 48 hr in presence of diatomaceous earth; type: functional, organism-based
# [15] = test system: Sitophilus oryzae; experiment: Insecticidal activity against Sitophilus oryzae (rice weevil) infected wheat assessed as mortality at 0.75 ppm applied as spray after 48 hr in presence of diatomaceous earth; type: functional
# [16] = test system: Sitophilus oryzae; experiment: Insecticidal activity against Sitophilus oryzae (rice weevil) infected wheat assessed as increase in mortality at 0.75 ppm applied as spray after 14 days in presence of diatomaceous earth; type: functional, organism-based
smiles,measurement,setting,value
CC1(C)C(C=C(Cl)Cl)C1C(=O)OC(C#N)c1ccc(F)c(Oc2ccccc2)c1 (stereo unspecified) [CYFLUTHRIN],Activity,[1],Active
same,mortality,[2],100%
same,mortality at 0.125 ppm,[3],> 91%
same,Activity,[4],Active
same,Activity,[5],inactive
same,Activity,[6],Active
same,mortality,[7],6%
same,Activity,[8],Active
same,Activity,[9],Active
same,mortality at 0.75 ppm,[10],79%
same,Activity,[11],Active
same,mortality at 0.75 ppm,[12],> 98%
same,Activity,[13],Active
same,Activity,[14],Active
same,mortality at 0.75 ppm,[15],79%
same,Activity,[16],Active
